Measurements published in patent US11753408B2, “Compounds and method for blocking transmission of malarial parasite” (The United States of America, as represented by the …, priority 2016, dated 2023).
Like-named read-outs stand apart in the source and are kept apart here.

Key:
[1] = tested on: Stage III-V gametocytes (blood stage P. falciparum parasites); assay: In vitro drug activity on gametocytes (AlamarBlue viability assay); format: cell-based, Plasmodium falciparum; conditions: read-out: Gametocyte EC50
Procedure, shortened: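 Viability was measured by AlamarBlue fluorescence (Ex 525/Em 598 nm) after 24 h dye incubation following 72 h compound exposure at 37° C, 5% CO2. Gametocytes, stage III–V from strains 3D7, HB3 and Dd2, were NAG/Percoll-enriched and plated at 20,000 cells/well.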

[2] = tested on: Asexual parasites of P. falciparum strain 3D7; assay: In vitro drug activity on asexual parasites (SYBR Green assay); format: cell-based, Plasmodium falciparum
Procedure, shortened: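 SYBR Green I fluorescence (ex 490, em 520 nm) was read after freeze-thaw lysis and 30 min staining at room temperature. Before that, drug-treated cultures (0.5% parasitemia, 2% hematocrit, DMSO ≤0.5%) were incubated 72 h, in duplicate.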

mTOR = mTOR (Homo sapiens, UniProt P42345); assay: mTOR activity (no method described); format: biochemical
[3] = Microsomal stability (rat); format: in vitro ADME; conditions: rat microsomes
Solubility at pH 7.4 = format: physicochemical
PAMPA permeability = format: in vitro ADME
[4] = P. falciparum stage III-V gametocytes, 72 h incubation, AlamarBlue
[5] = P. falciparum 3D7 asexual parasites, 72 h, SYBR Green

| Structure (SMILES) | EC50 [2] | mTOR (mTOR) | Microsomal Stability (rat) T1/2 [3] | Sol @ pH 7.4 (Solubility at pH 7.4) | PAMPA Permeability (PAMPA permeability) | EC50 [2, 5] | Sol @ pH 7.4 (ug/mL) (Solubility at pH 7.4) | PAMPA Permeability (×10^6 cm/s) (PAMPA permeability) | EC50 [1] | EC50 [1, 4] |
| --- | --- | --- | --- | --- | --- | --- | --- | --- | --- | --- |
| O=C(NC1CC1)c1ccc(-n2c(=O)ccc3cnc4ccc(-c5ccc(Cl)cc5)cc4c32)cc1 [Compound 87] | 24.4 nM | 241.1 nM | >30.0 min | 2.6 ug/mL | 33.1 ×10⁻⁶ cm/s |  |  |  | 139 nM |  |
| Cc1cc(C(=O)NC2CC2)ccc1-n1c(=O)ccc2cnc3ccc(-c4ccc(Cl)cc4)cc3c21 [Compound 88] | 56.7 nM | 1841 nM |  | 0.51 ug/mL | 117 ×10⁻⁶ cm/s |  |  |  | 141 nM |  |
| CN(C)C(=O)c1ccc(-n2c(=O)ccc3cnc4ccc(-c5ccc(Cl)cc5)cc4c32)cc1 [Compound 100] | 14.8 nM | 1531 nM | 3.8 min | <1.0 ug/mL | 315 ×10⁻⁶ cm/s |  |  |  | 45.5 nM |  |
| COc1cc(C(=O)NC2CC2)ccc1-n1c(=O)ccc2cnc3ccc(-c4ccc(F)cc4)cc3c21 [Compound 188] |  | 7201 nM | 21.5 min | <1 ug/mL | 1250 ×10⁻⁶ cm/s |  |  |  | 602 nM |  |
| COc1cc(C(=O)NC2CC2)ccc1-n1c(=O)ccc2cnc3ccc(-c4ccc(Cl)cc4)cc3c21 [Compound 191] |  | 4337 nM | 26.7 min | 2.4 ug/mL | 606 ×10⁻⁶ cm/s |  |  |  | 172 nM |  |
| COc1cc(C(=O)N2CCOCC2)ccc1-n1c(=O)ccc2cnc3ccc(-c4ccc(F)cc4)cc3c21 [Compound 194] |  | 100000 nM | 6.9 min | <1 ug/mL | 1080 ×10⁻⁶ cm/s |  |  |  | 702 nM |  |
| CC1CC1NC(=O)c1ccc(-n2c(=O)ccc3cnc4ccc(-c5ccc(N)nc5)cc4c32)cc1 (stereo not shown) [Compound 338] |  | 150.5 nM |  | 0.32 ug/mL | 141 ×10⁻⁶ cm/s |  |  |  | 65.9 nM |  |
| O=C1NCc2cc(-n3c(=O)ccc4cnc5ccc(-c6ccc(CN7CCOCC7)cc6)cc5c43)ccc21 [Compound 369] |  |  | 26 min |  |  | 1230 nM | 15.7 ug/mL | 55 ×10^6 cm/s |  | 2940 nM |
| NCc1cccc(-c2ccc3ncc4ccc(=O)n(-c5ccc6c(c5)CNC6=O)c4c3c2)c1 [Compound 370] |  |  | >30 min |  |  | 296 nM | 27.3 ug/mL | <1 ×10^6 cm/s |  | 4120 nM |
| O=C1NCc2cc(-n3c(=O)ccc4cnc5ccc(-c6ccc(CN7CCCC7)cc6)cc5c43)ccc21 [Compound 371] |  |  | >30 min |  |  | 472 nM | 45.3 ug/mL | 1.2 ×10^6 cm/s |  | 2470 nM |
| O=C1NCc2cc(-n3c(=O)ccc4cnc5ccc(-c6ccc(CCN7CCOCC7)cc6)cc5c43)ccc21 [Compound 372] |  |  | >30 min |  |  | 540 nM | <1 ug/mL | <1 ×10^6 cm/s |  | 1050 nM |
| NC1(c2ccc(-c3ccc4ncc5ccc(=O)n(-c6ccc7c(c6)CNC7=O)c5c4c3)cc2)CC1 [Compound 373] |  |  | >30 min |  |  | 350 nM | 3.3 ug/mL | <6.3 ×10^6 cm/s |  | 45.7 nM |
| CN(C)Cc1ccc(-c2ccc3ncc4ccc(=O)n(-c5ccc6c(c5)NC(=O)C6)c4c3c2)cc1 [Compound 374] |  |  | >30 min |  |  | 4180 nM | 52.5 ug/mL | <1.6 ×10^6 cm/s |  | 12900 nM |
| CN(C)CCc1ccc(-c2ccc3ncc4ccc(=O)n(-c5ccc6c(c5)CNC6=O)c4c3c2)cc1 [Compound 375] |  |  | >30 min |  |  | 389 nM | 13.1 ug/mL | <1.1 ×10^6 cm/s |  | 715 nM |
| Nc1ccc(-c2ccc3ncc4ccc(=O)n(-c5ccc6c(c5)C(=O)NC6)c4c3c2)cn1 [Compound 387] |  |  | >30.0 min |  |  | 316 nM | 1.4 ug/mL | <4.1 ×10^6 cm/s |  | 1840 nM |
| Nc1ccc(-c2ccc3ncc4ccc(=O)n(-c5ccc6c(c5)CN(C5CC5)C6=O)c4c3c2)cn1 [Compound 390] |  |  | >30.0 min |  |  | 75.2 nM | 4.2 ug/mL | 25 ×10^6 cm/s |  | 116 nM |
| CN1C(=O)CCc2cc(-n3c(=O)ccc4cnc5ccc(-c6ccc(N)nc6)cc5c43)ccc21 [Compound 392] |  |  | >30.00 min |  |  | 22 nM | 33.81 ug/mL | 133.39 ×10^6 cm/s |  | 46.1 nM |
| Nc1ccc(-c2ccc3ncc4ccc(=O)n(-c5ccc6c(c5)NC(=O)C6)c4c3c2)cn1 [Compound 394] |  |  | >30 min |  |  | 130 nM | <1 ug/mL | <1 ×10^6 cm/s |  | 438 nM |
| Cn1c(=O)n(-c2ccc(N3CCN(CCO)CC3)c(C#N)c2)c2c3cc(-c4ccc(Cl)cc4)ccc3ncc21 [Compound 417] |  | 319 nM |  | <1 ug/mL | < 1 ×10⁻⁶ cm/s |  |  |  | 36.5 nM |  |

Second part, led by results:

| EC50 [2] | mTOR (mTOR) | Microsomal Stability (rat) T1/2 [3] | Sol @ pH 7.4 (Solubility at pH 7.4) | PAMPA Permeability (PAMPA permeability) | EC50 [2, 5] | Sol @ pH 7.4 (ug/mL) (Solubility at pH 7.4) | PAMPA Permeability (×10^6 cm/s) (PAMPA permeability) | Structure (SMILES) | EC50 [1] | EC50 [1, 4] |
| --- | --- | --- | --- | --- | --- | --- | --- | --- | --- | --- |
| 177 nM | 3776 nM | >30.0 min | 61.6 ug/mL | 459 ×10⁻⁶ cm/s |  |  |  | CN(C)Cc1ccc(-c2ccc3ncc4ccc(=O)n(-c5ccc(C(=O)N6CCOCC6)cc5)c4c3c2)cc1 [Compound 86] | 212 nM |  |
| 186 nM | 5191 nM | 5 min | 7.5 ug/mL | 1080 ×10⁻⁶ cm/s |  |  |  | CN1CCN(C(=O)c2ccc(-n3c(=O)ccc4cnc5ccc(-c6ccc(Cl)cc6)cc5c43)cc2)CC1 [Compound 102] | 116 nM |  |
| 74.3 nM | 2997 nM | 10.5 min | 6.3 ug/mL | 76.1 ×10⁻⁶ cm/s |  |  |  | O=C(c1ccc(-n2c(=O)ccc3cnc4ccc(-c5ccc(Cl)cc5)cc4c32)cc1)N1CCNCC1 [Compound 103] | 71.3 nM |  |
| 215 nM | 2680 nM | 1.4 min | <1.0 ug/mL | 389 ×10⁻⁶ cm/s |  |  |  | O=C(c1ccc(-n2c(=O)ccc3cnc4ccc(-c5ccc(Cl)cc5)cc4c32)cc1)N1CCCCC1 [Compound 104] | 194 nM |  |
| 221 nM | 522.6 nM | 5.4 min |  | 243 ×10⁻⁶ cm/s |  |  |  | Cc1cccc(-c2ccc3ncc4ccc(=O)n(-c5ccc(C(=O)N6CCOCC6)cc5)c4c3c2)c1 [Compound 121] | 443 nM |  |
| 261 nM | 1303 nM | 5.4 min |  | 822 ×10⁻⁶ cm/s |  |  |  | O=C(c1ccc(-n2c(=O)ccc3cnc4ccc(-c5cccc(Cl)c5)cc4c32)cc1)N1CCOCC1 [Compound 122] | 371 nM |  |
| 144 nM | 1357 nM | 19.7 min |  | 20.4 ×10⁻⁶ cm/s |  |  |  | N#Cc1cccc(-c2ccc3ncc4ccc(=O)n(-c5ccc(C(=O)N6CCOCC6)cc5)c4c3c2)c1 [Compound 124] | 349 nM |  |
| 301 nM | 631.5 nM |  | 2.8 ug/mL | 204 ×10⁻⁶ cm/s |  |  |  | O=Cc1ccc(-c2ccc3ncc4ccc(=O)n(-c5ccc(C(=O)N6CCOCC6)cc5)c4c3c2)cc1 [Compound 169] | 630 nM |  |
|  | 100000 nM |  | >77.00 ug/mL | 366 ×10⁻⁶ cm/s |  |  |  | CN(C)Cc1cccc(-c2ccc3ncc4ccc(=O)n(-c5ccc(C(=O)N6CCOCC6)cc5)c4c3c2)c1 [Compound 173] | 2530 nM |  |
|  | 6514 nM | >30 min | >78 ug/mL | 212 ×10⁻⁶ cm/s |  |  |  | O=C(c1ccc(-n2c(=O)ccc3cnc4ccc(-c5ccc(CN6CCC6)cc5)cc4c32)cc1)N1CCOCC1 [Compound 189] | 358 nM |  |
|  | 8290 nM | >30 min | >81 ug/mL | 162 ×10⁻⁶ cm/s |  |  |  | COc1cc(C(=O)N2CCOCC2)ccc1-n1c(=O)ccc2cnc3ccc(-c4ccc(CN(C)C)cc4)cc3c21 [Compound 193] | 814 nM |  |
|  | 781.4 nM | 8.8 min | <1 ug/mL | 148 ×10⁻⁶ cm/s |  |  |  | CCc1ccc(-c2ccc3ncc4ccc(=O)n(-c5ccc(C(=O)N6CCOCC6)cc5)c4c3c2)cc1 [Compound 195] | 276 nM |  |
|  | 2384 nM | >30 min | >77 ug/mL | 3.5 ×10⁻⁶ cm/s |  |  |  | CC(C)(N)c1cccc(-c2ccc3ncc4ccc(=O)n(-c5ccc(C(=O)N6CCOCC6)cc5)c4c3c2)c1 [Compound 197] | 65100 nM |  |
